The structures appear in SMILES notation.

Series [1] in a line: Stability test at 70° C. of crystals (remaining ratio of N-(3,3-dimethylbutyl)-APM). The series is classed as physicochemical. The method, then: Then, the obtained G-type crystals, D-type crystals and A-type crystals of N-(3,3-dimethylbutyl)-APM were tested at 70° C., concerning their stability. […] The relationship between the storage time and the remaining ratio of N-(3,3-dimethylbutyl)-APM in this test will be shown below in Table 1.

For series [2] the following is noted: on the weight basis, cited from earlier work.

As to `COC(=O)[C@H](Cc1ccccc1)NC(=O)[C@H](CC(=O)O)NCCC(C)(C)C` [A-type crystals, N-[N-(3,3-dimethylbutyl)-L-α-aspartyl]-L-phenylalanine methyl ester], the “Remaining Ratio (wt. %)” value in series [1] (time elapsed 0 hrs, listed as A) was 95 wt. %; in series [1] (time elapsed 100 hrs, listed as A), 94 wt. %; in series [1] (time elapsed 271 hrs), 96 wt. %; in series [1] (time elapsed 271 hrs, listed as A), 96 wt. %.

For the compound `COC(=O)[C@H](Cc1ccccc1)NC(=O)[C@H](CC(=O)O)NCCC(C)(C)C` [D-type crystals, N-[N-(3,3-dimethylbutyl)-L-α-aspartyl]-L-phenylalanine methyl ester], the “Remaining Ratio (wt. %)” value was found to be 95 wt. % in series [1] (time elapsed 0 hrs, listed as D); 96 wt. % in series [1] (time elapsed 100 hrs, listed as D); 77 wt. % in series [1] (time elapsed 271 hrs); 77 wt. % in series [1] (time elapsed 271 hrs, listed as D).

As to `COC(=O)[C@H](Cc1ccccc1)NC(=O)[C@H](CC(=O)O)NCCC(C)(C)C` [G-type crystals, N-[N-(3,3-dimethylbutyl)-L-α-aspartyl]-L-phenylalanine methyl ester], the “Remaining Ratio (wt. %)” value came to 96 wt. % in series [1] (time elapsed 0 hrs, listed as G); 48 wt. % in series [1] (time elapsed 100 hrs, listed as G); 18 wt. % in series [1] (time elapsed 271 hrs); 18 wt. % in series [1] (time elapsed 271 hrs, listed as G).

For `COC(=O)[C@H](Cc1ccccc1)NC(=O)[C@H](CC(=O)O)NCCC(C)(C)C` [N-(3,3-dimethylbutyl)-ATM, N-[N-(3,3-dimethylbutyl)-L-α-aspartyl]-L-phenylalanine methyl ester], the “sweetening potency relative to aspartame” value in series [2] (times that of aspartame) is recorded as “at least 50 times”. For the same compound, the “sweetening potency relative to sucrose (table sugar)” value in series [2] (times that of sucrose) is “about 10,000 times”.

The values above are taken from patent US6844465B2, “Method for preparing highly stable crystals of aspartame derivative” (Ajinomoto Co., Inc., priority 1998, dated 2005).
